From US12643882B2, “Inhibitors of human respiratory syncytial virus and metapneumovirus” (priority 2022, dated 2026) come the findings set out here.

One experiment has as its system hMPV-GFP virus. In words: microbe, parasite or virus in culture. Type of experiment: cell-based, human metapneumovirus. In short, it runs like this:
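VERO cells infected with GFP-expressing hMPV at MOI 1.25 were incubated 48 h at 37 °C with compound in 10-point 3-fold dilutions (typically 40,300–2 nM final). GFP-positive cells were counted by imaging. Same-well CellTiter-Glo gave cytotoxicity, and IC50/CC50 came from 4-parameter logistic fits.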

In the next experiment the test system is RSV-A2-GFP virus. Description: microbe, parasite or virus in culture. Format: cell-based, Human Respiratory Syncytial Virus. The method, boiled down:
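Assay-ready frozen Calu-1 cells at 20,000 cells/mL were infected with recombinant RSV-A2-GFP (MOI 1.2) in DMEM with 2% FBS. Cells were exposed to 10-point 3-fold compound dilutions for 96 h at 37° C. GFP-positive cells were counted by imaging, with same-well CellTiter-Glo for cytotoxicity, and IC50 and CC50 came from 4-parameter logistic fits.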

[1] abbreviates: VERO cells infected with hMPV-GFP, 48 hrs, GFP-expressing cells counted, read-out: hMPV EC50.
Setting [2] is: Calu-1 cells infected with RSV-A2-GFP, 96 hrs, GFP-expressing cells counted, read-out: RSV EC50.
Where [3] appears, read: read-out: hMPV EC50, VERO cells infected with hMPV-GFP, 48 hrs, GFP-expressing cells counted.
The mark [4] stands for this setting: read-out: RSV EC50, Calu-1 cells infected with RSV-A2-GFP, 96 hrs, GFP-expressing cells counted.
Setting [5] is: human metapneumovirus, Vero, 48 h, read-out: hMPV EC50, VERO cells infected with hMPV-GFP, 48 hrs, GFP-expressing cells counted.
[6] abbreviates: human respiratory syncytial virus, Calu-1, 96 h, read-out: RSV EC50, Calu-1 cells infected with RSV-A2-GFP, 96 hrs, GFP-expressing cells counted.

pEC50: −log10 of the molar value. Read-outs that look alike come from different tables or passages of the source.

In the case of `Cc1cccc(-c2cc(C(C)(C)N)cc(O[C@H]3[C@@H]4CN(C(=O)c5sc(-c6ncccn6)nc5C)C[C@@H]43)n2)c1F` [Example 40, ((1R,5S,6s)-6-((4-(2-aminopropan-2-yl)-6-(2-fluoro-3-methylphenyl)pyridin-2-yl)oxy)-3-azabicyclo[3.1.0]hexan-3-yl)(4-methyl-2-(pyrimidin-2-yl)thiazol-5-yl)methanone], the values for the pEC50 in the experiment with hMPV-GFP virus (setting [1]) and with RSV-A2-GFP virus (setting [2]) were below 7.00 and above 8.00, respectively.

Turning to `Cn1nc(-c2ncccn2)cc1C(=O)N1C[C@H]2[C@H](Oc3cc(C(C)(C)N)cc(-c4ccc(F)c(F)c4)n3)[C@@]2(C)C1` (single isomer, unassigned; enantiomer 2) [Example 105B], the pEC50 in the experiment with hMPV-GFP virus (setting [3]) is 7.00 to 8.00; in the experiment on RSV-A2-GFP virus (setting [4]), above 8.00.

Regarding `Cc1nn(-c2ncccn2)cc1C(=O)N1C[C@H]2[C@H](Oc3cc(C(C)(C)N)cc(-c4ccc(F)cc4F)n3)[C@@]2(C)C1` (single isomer, unassigned; enantiomer 2) [Example 109B], the pEC50 was 7.00 to 8.00 in the experiment on hMPV-GFP virus (setting [3]) and above 8.00 with RSV-A2-GFP virus (setting [4]).

As to `CC(C)(N)c1cc(O[C@H]2[C@@H]3CN(C(=O)c4sc(-c5ncccn5)nc4C(F)(F)F)C[C@@H]32)nc(-c2ccc(F)cc2)c1` [Example 11, ((1R,5S,6s)-6-((4-(2-aminopropan-2-yl)-6-(4-fluorophenyl)pyridin-2-yl)oxy)-3-azabicyclo[3.1.0]hexan-3-yl)(2-(pyrimidin-2-yl)-4-(trifluoromethyl)thiazol-5-yl)methanone], the pEC50 with hMPV-GFP virus (setting [1]) was below 7.00; in the experiment on RSV-A2-GFP virus (setting [2]), above 8.00.

On to `Cn1nc(-c2ncccn2)c(F)c1C(=O)N1C[C@@H]2[C@H](C1)[C@H]2Oc1cc(C(C)(C)N)cc(-c2ccc(F)cc2)n1` [Example 54, ((1R,5S,6s)-6-((4-(2-aminopropan-2-yl)-6-(4-fluorophenyl)pyridin-2-yl)oxy)-3-azabicyclo[3.1.0]hexan-3-yl)(4-fluoro-1-methyl-3-(pyrimidin-2-yl)-1H-pyrazol-5-yl)methanone], for which the pEC50 was below 7.00 in the experiment with hMPV-GFP virus (setting [5]) and above 8.00 with RSV-A2-GFP virus (setting [6]).

`CC(C)(N)c1cc(O[C@H]2[C@@H]3CN(C(=O)c4sc(-c5ncccn5)nc4C(F)F)C[C@@H]32)nc(-c2ccc(F)cc2)c1` [Example 49, ((1R,5S,6s)-6-((4-(2-aminopropan-2-yl)-6-(4-fluorophenyl)pyridin-2-yl)oxy)-3-azabicyclo[3.1.0]hexan-3-yl)(4-(difluoromethyl)-2-(pyrimidin-2-yl)thiazol-5-yl)methanone]: the pEC50 was 7.00 to 8.00 in the experiment with hMPV-GFP virus (setting [5]) and above 8.00 in the experiment on RSV-A2-GFP virus (setting [6]).

Consider `Cc1nc(-c2ncccn2)sc1C(=O)N1C[C@@H]2[C@H](C1)[C@H]2Oc1cc(-c2ccc(F)cc2)nc(C(C)(C)N)c1` [Example 114, ((1R,5S,6s)-6-((2-(2-aminopropan-2-yl)-6-(4-fluorophenyl)pyridin-4-yl)oxy)-3-azabicyclo[3.1.0]hexan-3-yl)(4-methyl-2-(pyrimidin-2-yl)thiazol-5-yl)methanone], for which the negative logarithm of the EC50 (pEC50) is below 7.00 in the experiment with hMPV-GFP virus (setting [5]) and above 8.00 in the experiment on RSV-A2-GFP virus (setting [6]).

Consider `Cc1ccc(-c2cc(C(C)(C)N)cc(O[C@H]3[C@@H]4CN(C(=O)c5sc(-c6ncccn6)nc5C)C[C@@H]43)n2)cc1F` [Example 37, ((1R,5S,6s)-6-((4-(2-aminopropan-2-yl)-6-(3-fluoro-4-methylphenyl)pyridin-2-yl)oxy)-3-azabicyclo[3.1.0]hexan-3-yl)(4-methyl-2-(pyrimidin-2-yl)thiazol-5-yl)methanone], for which the pEC50 in the experiment with hMPV-GFP virus (setting [1]) was 7.00 to 8.00; in the experiment with RSV-A2-GFP virus (setting [2]), above 8.00.

For `Cn1nc(-c2ncccn2)cc1C(=O)N1C[C@@H]2[C@H](C1)[C@H]2Oc1cc(C(C)(C)N)cc(-c2ccc(C(F)(F)F)cc2)n1` [Example 59, ((1R,5S,6s)-6-((4-(2-aminopropan-2-yl)-6-(4-(trifluoromethyl)phenyl)pyridin-2-yl)oxy)-3-azabicyclo[3.1.0]hexan-3-yl)(1-methyl-3-(pyrimidin-2-yl)-1H-pyrazol-5-yl)methanone], the negative logarithm of the EC50 (pEC50) was 7.00 to 8.00 with hMPV-GFP virus (setting [1]) and above 8.00 in the experiment on RSV-A2-GFP virus (setting [2]).

On to `Cc1nn(-c2ncccn2)c(F)c1C(=O)N1C[C@@H]2[C@H](C1)[C@H]2Oc1cc(C(C)(C)N)cc(-c2ccc(F)cc2)n1` [Example 79, ((1R,5S,6s)-6-((4-(2-aminopropan-2-yl)-6-(4-fluorophenyl)pyridin-2-yl)oxy)-3-azabicyclo[3.1.0]hexan-3-yl)(5-fluoro-3-methyl-1-(pyrimidin-2-yl)-1H-pyrazol-4-yl)methanone], for which the values for the pEC50 in the experiment with hMPV-GFP virus (setting [5]) and with RSV-A2-GFP virus (setting [6]) were below 7.00 and above 8.00, respectively.

On to `Cc1nn(-c2ncccn2)cc1C(=O)N1C[C@@H]2[C@H](C1)[C@H]2Oc1cc(C(C)(C)N)cc(-c2cc(F)c(F)c(F)c2)n1` [Example 82, ((1R,5S,6s)-6-((4-(2-aminopropan-2-yl)-6-(3,4,5-trifluorophenyl)pyridin-2-yl)oxy)-3-azabicyclo[3.1.0]hexan-3-yl)(3-methyl-1-(pyrimidin-2-yl)-1H-pyrazol-4-yl)methanone], for which the negative logarithm of the EC50 (pEC50) was 7.00 to 8.00 in the experiment with hMPV-GFP virus (setting [1]) and above 8.00 in the experiment with RSV-A2-GFP virus (setting [2]).

For `Cc1nn(-c2ncccn2)c(C)c1C(=O)N1C[C@@H]2[C@H](C1)[C@H]2Oc1cc(C(C)(C)N)cc(-c2ccc(F)cc2)n1` [Example 73, ((1R,5S,6s)-6-((4-(2-aminopropan-2-yl)-6-(4-fluorophenyl)pyridin-2-yl)oxy)-3-azabicyclo[3.1.0]hexan-3-yl)(3,5-dimethyl-1-(pyrimidin-2-yl)-1H-pyrazol-4-yl)methanone], the pEC50 in the experiment with hMPV-GFP virus (setting [1]) was below 7.00; with RSV-A2-GFP virus (setting [2]) it was above 8.00.

In the case of `Cn1nc(-c2ncccn2)c(Cl)c1C(=O)N1C[C@@H]2[C@H](C1)[C@H]2Oc1cc(C(C)(C)N)cc(-c2ccc(F)cc2)n1` [Example 53, ((1R,5S,6s)-6-((4-(2-aminopropan-2-yl)-6-(4-fluorophenyl)pyridin-2-yl)oxy)-3-azabicyclo[3.1.0]hexan-3-yl)(4-chloro-1-methyl-3-(pyrimidin-2-yl)-1H-pyrazol-5-yl)methanone], the negative-log EC50 (pEC50) was below 7.00 with hMPV-GFP virus (setting [5]) and above 8.00 in the experiment with RSV-A2-GFP virus (setting [6]).

Turning to `Cc1nc(-c2ncccn2)sc1C(=O)N1C[C@@H]2[C@H](C1)[C@H]2Oc1cc(C(C)(C)N)cc(-c2ccc(C(F)F)cc2)n1` [Example 25, ((1R,5S,6s)-6-((4-(2-aminopropan-2-yl)-6-(4-(difluoromethyl)phenyl)pyridin-2-yl)oxy)-3-azabicyclo[3.1.0]hexan-3-yl)(4-methyl-2-(pyrimidin-2-yl)thiazol-5-yl)methanone], the pEC50 with hMPV-GFP virus (setting [1]) is 7.00 to 8.00; in the experiment on RSV-A2-GFP virus (setting [2]), above 8.00.

As for `Cc1nc(-c2ncccn2)sc1C(=O)N1C[C@@H]2[C@H](C1)[C@H]2Oc1cc(C(C)(C)N)cc(-c2cc3ccccc3[nH]2)n1` [Example 43, ((1R,5S,6s)-6-((4-(2-aminopropan-2-yl)-6-(1H-indol-2-yl)pyridin-2-yl)oxy)-3-azabicyclo[3.1.0]hexan-3-yl)(4-methyl-2-(pyrimidin-2-yl)thiazol-5-yl)methanone], the pEC50 in the experiment with hMPV-GFP virus (setting [1]) was below 7.00; in the experiment with RSV-A2-GFP virus (setting [2]) it was above 8.00.

On to `Cn1nc(-c2ncccn2)cc1C(=O)N1C[C@@H]2[C@H](C1)[C@H]2Oc1cc(C(C)(C)N)cc(-c2ccc(Cl)cc2)n1` [Example 58, ((1R,5S,6s)-6-((4-(2-aminopropan-2-yl)-6-(4-chlorophenyl)pyridin-2-yl)oxy)-3-azabicyclo[3.1.0]hexan-3-yl)(1-methyl-3-(pyrimidin-2-yl)-1H-pyrazol-5-yl)methanone], for which the pEC50 is 7.00 to 8.00 with hMPV-GFP virus (setting [1]) and above 8.00 in the experiment on RSV-A2-GFP virus (setting [2]).

For the compound `Cc1nc(-c2ncccn2)sc1C(=O)N1C[C@@H]2C(Oc3cc(C(C)(C)N)cc(C4=CCC(C(F)(F)F)CC4)n3)[C@@H]2C1` (mixture of isomers) [Example 47, rac-((1R,5S,6s)-6-((4-(2-aminopropan-2-yl)-6-(4-(trifluoromethyl)cyclohex-1-en-1-yl)pyridin-2-yl)oxy)-3-azabicyclo[3.1.0]hexan-3-yl)(4-methyl-2-(pyrimidin-2-yl)thiazol-5-yl)methanone], the pEC50 in the experiment on hMPV-GFP virus (setting [1]) is below 7.00; in the experiment with RSV-A2-GFP virus (setting [2]), above 8.00.

On to `Cc1nn(-c2ncccn2)cc1C(=O)N1C[C@@H]2[C@H](C1)[C@H]2Oc1cc(C2(C)CCCN2)cc(-c2ccc(F)cc2)n1` (single isomer, unassigned; enantiomer 1) [Example 112], for which the negative-log EC50 (pEC50) in the experiment with hMPV-GFP virus (setting [5]) was below 7.00; in the experiment with RSV-A2-GFP virus (setting [6]), above 8.00.

As for `Cn1nc(-c2ncccn2)cc1C(=O)N1C[C@H]2[C@H](Oc3cc(C(C)(C)N)cc(-c4ccc(F)c(F)c4)n3)[C@@]2(C)C1` (single isomer, unassigned; enantiomer 1) [Example 105A], the pEC50 in the experiment with hMPV-GFP virus (setting [3]) is below 7.00; in the experiment with RSV-A2-GFP virus (setting [6]), above 8.00.

As for `Cn1nc(-c2ncccn2)cc1C(=O)N1C[C@H]2[C@H](Oc3cc(C(C)(C)N)cc(-c4ccc(F)cc4F)n3)[C@@]2(C)C1` (single isomer, unassigned; enantiomer 1) [Example 108A], the negative logarithm of the EC50 (pEC50) is below 7.00 with hMPV-GFP virus (setting [5]) and above 8.00 in the experiment on RSV-A2-GFP virus (setting [6]).

As for `Cc1nn(-c2ncccn2)cc1C(=O)N1C[C@@H]2[C@H](C1)[C@H]2Oc1cc(C(C)(C)N)cc(N2CCC(C)(C)CC2)n1` [Example 100, ((1R,5S,6s)-6-((4-(2-aminopropan-2-yl)-6-(4,4-dimethylpiperidin-1-yl)pyridin-2-yl)oxy)-3-azabicyclo[3.1.0]hexan-3-yl)(3-methyl-1-(pyrimidin-2-yl)-1H-pyrazol-4-yl)methanone], the pEC50 with hMPV-GFP virus (setting [1]) was below 7.00; in the experiment with RSV-A2-GFP virus (setting [2]) it was above 8.00.
